Data set [1] relates to human male. The class given is in vivo. The protocol: The peptides described herein were prepared by sterile methods to a final concentration of 10 mg of peptide per ml of physiological salina. In addition to a full dose providing 10 mg of the peptide to the individual, doses of 0.1 to 0.3 ml (providing 1 mg to 3 mg of the peptide to each individual) of this stock material were also injected into volunteers, with a dose of 0.1 to 0.2 ml being the most often used dosage.
A dose of 3.75 mg given to volunteers produced a long lasting erection of 4 to 6 hour duration. […] In some, this discomfort was considerable. […] Accordingly, although dosages of from about 1.0 mg to about 10.0 mg show the desired activity according to the present invention, it is preferred that the lower ranges of dosage which bring about the desired erection without undesirable side effects be used. Accordingly, it is preferred that dosages of about 1.5 mg to 2.5 mg of peptide be provided when the route of administration is subcutaneous or intramuscular. With other routes of administration, this range may require adjustment, however, it is still preferred that the lower range of adjusted effective dosages for the selected route of administration be used.
Another of the peptides according to the present invention (Ac-Nle-Asp-His-D-Phe-Cl-Arg-Trp-Lys-Gly-NH2) induced an erection within 60 minutes following administration at a concentration of 2.5 mg. This erection lasted, intermittently, for up to six hours.

Data set [2] concerns patients. To be noted: injection, alone or combined with pheniolamine; cited from earlier work.
Data set [3] relates to castrated dog. Nature of the data set: Erectile response after injection into the castrated dog. It is filed as in vivo.

Like-named read-outs stand apart in the source and are kept apart here. dPhe(Cl) = D-phenylalanine carrying a chlorine on the ring; Nle = CCCC[C@H](N)C(=O)O

Regarding “Ac-Nle-Asp-His-D-Phe-Cl-Arg-Trp-Lys-Gly-NH2 ({Ac-Nle-Asp-H2N-dPhe(Cl)}-RWKG-NH2)”, the “time to erection following administration” value in data set [1] (1.25 mg, compared with 2.5 mg, human) was “took longer to initially occur”; in data set [1] (2.5 mg, human) it was no more than 60 min. For the same compound, the “duration of erection (sustained intermittently)” value in data set [1] (1.25 mg, human) was “up to 6 hours”.

Turning to `COc1ccc(Cc2nccc3cc(OC)c(OC)cc23)cc1OC` [papaverine], the “patients in whom an erection is induced” value in data set [2] is “about 70%”.

On to “Ac-Ser-Tyr-Ser-Nle-Glu-His-D-Phe-Cl-Arg-Trp-Gly-Lys-Pro-Val-NH2 [reference compound]”, for which the erectile response entry in data set [1] (highest dose administered (about 20 mg), human) is on record as “did not cause an erectile response”.

Turning to “Ac-Nle-Asp-His-D-Phe-Cl-Arg-Trp-Lys-NH2 [Example II]”, the erectile activity entry in data set [1] (1.25 mg (smallest dose) subcutaneously, human volunteers) was “generally no erectile activity was noted”. For the same compound, in data set [1] (human, in vivo), the stomach discomfort result is recorded as “stomach discomfort was noted”. Further, the erectile response result in data set [3] (castrated dog first primed with testosterone) was “did so”; in data set [3] (castrated dog, not primed), “caused no erectile response”.

Source of the values: patent publication US20030036514A1, “Compositions and methods for the diagnosis and treatment of psychogenic erectile dysfunction” (priority 2001, published 2003).
